# According to patent publication US8211901B2, “Naphthamide derivatives as multi-target protein kinase inhibitors and histone deacetylase inhibitors” (Shenzhen Chipscreen Biosciences Ltd., priority 2009, dated 2012):
# Legend:
# Assay type in all cases: in vivo, nu/nu mice
# [1] = Body weight in HCT-8 xenograft study (Example 55); details: 40 mg/kg orally once a day for 20 days
# Procedure: (§1) The antitumor activity of compound 33 and compound 37 were measured in human HCT-8 colon cancer xenograft model. The female nu/nu mice of 18˜20 g were fed by normal diet for 3 days. Then the cultured HCT-8 human colon cancer cells were implanted into the armpit of 50 mice. […] One group was treated with vehicle. One group was treated with sutent, the positive control drug. Two groups were treated with compound 33. The other two groups were treated with compound 37. Compound 33 was administered twice a day with an interval of 6 hours. Other drugs and vehicle were administered once a day. Each group was dosed orally for 20 days. Tumor volumes as established by caliper measurements were recorded twice per week, along with body weights. At the end of study, the mice were killed, and tumors were weighed. The tumor growth inhibition of each group was calculated using the formula {[(the average tumor weight of vehicle group)−(the average tumor weight of drug group)]/(the average tumor weight of vehicle group)}×100%.
# [2] = Body weight in SSMC7721 xenograft study (Example 53); details: 40 mg/kg orally once a day for 30 days
# Procedure: (§2) The antitumor activity of compound 31 was measured in human SSMC7721 liver cancer xenograft model. The female nu/nu mice of 18˜20 g were fed by normal diet for 3 days. Then the cultured SSMC7721 human liver cancer cells were implanted into the armpit of 50 mice. […] One group was treated with vehicle. One group was treated with sutent, the positive control drug. […] Each group was dosed orally once a day for 30 days. Tumor volumes as established by caliper measurements were recorded twice per week, along with body weights. At the end of study, the mice were killed, and tumors were weighed. The tumor growth inhibition of each group was calculated using the formula {[(the average tumor weight of vehicle group)−(the average tumor weight of drug group)]/(the average tumor weight of vehicle group)}×100%.
# [3] = Body weight in A549 xenograft study (Example 51); details: 40 mg/kg orally once a day for 24 days
# Procedure: The antitumor activity of compound 31 was measured in human A549 lung cancer xenograft model. […] Then the cultured A549 human lung cancer cells were implanted into the armpit of 50 mice. When tumors had reached approximately 6 mm in diameter, the mice were divided into 6 groups randomly. Each group has 8 mice. One group was treated with vehicle. One group was treated with sutent, the positive control drug. […] Each group was dosed orally once a day for 24 days. Tumor volumes as established by caliper measurements were recorded twice per week, along with body weights. At the end of study, the mice were killed, and tumors were weighed. The tumor growth inhibition of each group was calculated using the formula {[(the average tumor weight of vehicle group)-(the average tumor weight of drug group)]/(the average tumor weight of vehicle group)}×100%.
# [4] = tested on: human HCT-8 colon cancer xenograft; assay: Antitumor activity of compounds 33 and 37, HCT-8 xenograft (Example 55); details: 40 mg/kg orally once a day for 20 days
# Procedure: as §1
# [5] = Body weight in SSMC7721 xenograft study (Example 56); details: 40 mg/kg orally once a day for 30 days
# Procedure: The antitumor activity of compound 33 and compound 37 were measured in human SSMC7721 liver cancer xenograft model. The female nu/nu mice of 18˜20 g were fed by normal diet for 3 days. Then the cultured SSMC7721 human liver cancer cells were implanted into the armpit of 50 mice. […] Each group has 8 mice. One group was treated with vehicle. One group was treated with sutent, the positive control drug. Two groups were treated with compound 33. The other two groups were treated with compound 37. Each group was dosed orally once a day for 30 days. Tumor volumes as established by caliper measurements were recorded twice per week, along with body weights. At the end of study, the mice were killed, and tumors were weighed. The tumor growth inhibition of each group was calculated using the formula {[(the average tumor weight of vehicle group)−(the average tumor weight of drug group)]/(the average tumor weight of vehicle group)}×100%.
# [6] = tested on: human SSMC7721 liver cancer xenograft; assay: Antitumor activity of compound 31, SSMC7721 xenograft (Example 53); details: 40 mg/kg orally once a day for 30 days
# Procedure: as §2
# [7] = Body weight in HCT-8 xenograft study (Example 52); details: 40 mg/kg orally once a day for 20 days
# Procedure: The antitumor activity of compound 31 was measured in human HCT-8 colon cancer xenograft model. The female nu/nu mice of 18˜20 g were fed by normal diet for 3 days. Then the cultured HCT-8 human colon cancer cells were implanted into the armpit of 50 mice. When tumors had reached approximately 100 mm^3, the mice were divided into 6 groups randomly. Each group has 8 mice. One group was treated with vehicle. One group was treated with sutent, the positive control drug. […] Each group was dosed orally once a day for 20 days. Tumor volumes as established by caliper measurements were recorded twice per week, along with body weights. At the end of study, the mice were killed, and tumors were weighed. The tumor growth inhibition of each group was calculated using the formula {[(the average tumor weight of vehicle group)−(the average tumor weight of drug group)]/(the average tumor weight of vehicle group)}×100%.
# [8] = Body weight in HCT-8 xenograft study (Example 54); details: 40 mg/kg orally once a day for 20 days
# Procedure: The antitumor activity of compound 33 and compound 34 were measured in human HCT-8 colon cancer xenograft model. The female nu/nu mice of 18˜20 g were fed by normal diet for 3 days. Then the cultured HCT-8 human colon cancer cells were implanted into the armpit of 50 mice. When tumors had reached approximately 100 mm^3, the mice were divided into 6 groups randomly. Each group has 8 mice. One group was treated with vehicle. One group was treated with sutent, the positive control drug. Two groups were treated with compound 33. The other two groups were treated with compound 34. Each group was dosed orally once a day for 20 days. Tumor volumes as established by caliper measurements were recorded twice per week, along with body weights. At the end of study, the mice were killed, and tumors were weighed. The tumor growth inhibition of each group was calculated using the formula {[(the average tumor weight of vehicle group)−(the average tumor weight of drug group)]/(the average tumor weight of vehicle group)}×100%.
smiles,measurement,setting,value
"CCN(CC)CCNC(=O)c1c(C)[nH]c(/C=C2\C(=O)Nc3ccc(F)cc32)c1C [Sutent, reference compound]",Body weight (g) end,[1]; end,23.7 ± 0.8 g
same,Body weight (g) start,[1]; start,21.3 ± 0.6 g
same,Body weight (g) end,[2]; end,24.8 ± 1.2 g
same,Body weight (g) start,[2]; start,21.0 ± 0.8 g
same,Body weight (g) end,[3]; end,24.4 ± 2.3 g
same,Body weight (g) start,[3]; start,20.3 ± 1.4 g
same,TGI (%) Tumor growth inhibition,[4],95.3%
same,Body weight (g) end,[5]; end,24.0 ± 0.6 g
same,Body weight (g) start,[5]; start,21.2 ± 1.1 g
same,TGI (%) Tumor growth inhibition,[6],70.3%
same,Tumor weight,[6],1.00 ± 0.68 g
same,Body weight (g) end,[7]; end,22.4 ± 1.1 g
same,Body weight (g) start,[7]; start,21.5 ± 0.7 g
same,Body weight (g) end,[8]; end,22.1 ± 1.5 g
same,Body weight (g) start,[8]; start,20.6 ± 1.2 g
